# Where two headings read alike, the source gives them in different places.
# Assays:
# [1] = Voxelotor in milk of lactating rats; assay type: in vivo, rat
# Excerpt: There are no data on the presence of voxelotor in human milk, the effects on the breastfed child, or the effects on milk production. […] Plasma concentrations of voxelotor in pregnant rats were higher than the concentration in milk. When a drug is present in animal milk, it is likely that the drug will be present in human milk. […] Because of the potential for serious adverse reactions in the breastfed child, including changes in the hematopoietic system, advise patients that breastfeeding is not recommended during treatment with OXBRYTA, and for at least 2 weeks after the last dose.
# [2] = Clinical pharmacokinetics of voxelotor in plasma, whole blood and RBCs; assay type: in vivo, human; details: for AUC(0-t): read-out: AUC0-24h, Geometric Mean (% CV); for Cmax: read-out: Cmax, Geometric Mean (% CV)
# Excerpt: Voxelotor is absorbed into plasma and is then distributed predominantly into RBCs due to its preferential binding to Hb. The major route of elimination of voxelotor is by metabolism with subsequent excretion of metabolites into urine and feces. The PK are linear and voxelotor exposures increased proportionally with either single or multiple doses (Table 3) in whole blood, plasma, and RBCs. Steady-state after repeated administration is reached within 8 days and exposures of voxelotor are consistent with accumulation predicted based on single dose data in patients with SCD.
# The median plasma and whole blood Tmax of voxelotor after oral administration is 2 hours. The mean peak concentrations in whole blood and RBCs are observed between 6 and 18 hours after oral administration.
# Voxelotor apparent volume of distribution of the central compartment and peripheral compartment are 338 L and 72.2 L in plasma, respectively. Protein binding is 99.8% in vitro. The blood-to-plasma ratio is approximately 15:1 in patients with SCD.
# CYP1A2 = CYP1A2 (Homo sapiens, UniProt P05177); experiment: Effect of voxelotor on PK of CYP1A2 probe substrate caffeine in healthy subjects; assay type: in vivo
# Experimental: During Period 1, subjects received a single dose of caffeine 100 mg, warfarin sodium 10 mg+vitamin K 10 mg, omeprazole 20 mg, and midazolam hydrochloride 2 mg on Day 1. During Period 2, subjects received voxelotor 900 mg QD on Days 1 and 2 followed by 600 mg QD on Day 3, a single dose of caffeine 100 mg, warfarin sodium 10 mg+vitamin K 10 mg, omeprazole 20 mg, and midazolam hydrochloride 2 mg on Day 4, and voxelotor 600 mg QD on Days 4 through 7.
# Whole blood and plasma concentrations of voxelotor and plasma concentrations of caffeine, paraxanthine, S-warfarin, omeprazole, 5-hydroxyomeprazole, midazolam, and 1-hydroxymidazolam were determined using validated assays.
# [3] = system: sickle cell disease (SCD) patients; experiment: HOPE trial: efficacy in sickle cell disease; assay type: in vivo, human
# Experimental: The efficacy and safety of OXBRYTA in sickle cell disease (SCD) was evaluated in HOPE, a randomized, double-blind, placebo-controlled, multicenter trial [NCT 03036813]. In this study, 274 patients were randomized to daily oral administration of OXBRYTA 1,500 mg (N=90), OXBRYTA 900 mg (N=92), or placebo (N=92). Patients were included if they had from 1 to 10 vasoocclusive crisis (VOC) events within 12 months prior to enrollment and baseline hemoglobin (Hb) ≥5.5 to ≤10.5 g/dL. Eligible patients on stable doses of hydroxyurea for at least 90 days were allowed to continue hydroxyurea therapy throughout the study. Randomization was stratified by patients already receiving hydroxyurea (yes, no), geographic region (North America, Europe, Other), and age (12 to <17 years, 18 to 65 years). The trial excluded patients who received red blood cell (RBC) transfusions within 60 days and erythropoietin within 28 days of enrollment, had renal insufficiency, uncontrolled liver disease, were pregnant, or lactating.
# The majority of patients had HbSS or HbS/beta^0-thalassemia genotype (90%) and were receiving background hydroxyurea therapy (65%). The median age was 24 years (range: 12 to 64 years); 46 (17%) patients were 12 to <17 years of age. Median baseline Hb was 8.5 g/dL (5.9 to 10.8 g/dL). One hundred and fifteen (42%) had 1 VOC event and 159 (58%) had 2 to 10 events within 12 months prior to enrollment.
# Efficacy was based on Hb response rate defined as a Hb increase of >1 g/dL from baseline to Week 24 in patients treated with OXBRYTA 1,500 mg versus placebo. […] No outlier subgroups were observed. The distribution of Hb change from baseline for individual patients completing 24 weeks of treatment with OXBRYTA 1,500 mg or placebo is depicted in FIG. 8.
# Additional efficacy evaluation included change in Hb and percent change in indirect bilirubin and percent reticulocyte count from baseline to Week 24 (Table 4).
# [4] = human, oral, 1500 mg, plasma, Voxelotor 1,500 mg
# [5] = human, oral, 1500 mg, whole blood, Voxelotor 1,500 mg
# CYP1A2, sequence (P05177 whole entry): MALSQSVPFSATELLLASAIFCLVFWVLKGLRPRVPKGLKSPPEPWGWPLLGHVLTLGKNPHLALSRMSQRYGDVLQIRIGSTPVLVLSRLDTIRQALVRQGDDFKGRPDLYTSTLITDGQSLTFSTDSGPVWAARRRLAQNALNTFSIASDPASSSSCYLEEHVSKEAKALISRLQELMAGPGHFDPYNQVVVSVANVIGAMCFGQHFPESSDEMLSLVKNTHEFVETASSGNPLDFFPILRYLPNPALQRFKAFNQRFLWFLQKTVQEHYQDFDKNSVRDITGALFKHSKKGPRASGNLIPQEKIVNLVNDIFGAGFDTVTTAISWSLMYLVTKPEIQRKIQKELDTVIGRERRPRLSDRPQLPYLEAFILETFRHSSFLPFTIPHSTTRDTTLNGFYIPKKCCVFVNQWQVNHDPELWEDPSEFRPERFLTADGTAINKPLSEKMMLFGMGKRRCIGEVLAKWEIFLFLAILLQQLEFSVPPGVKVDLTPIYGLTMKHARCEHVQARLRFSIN
compound,measurement,setting,value
"CC(C)n1nccc1-c1ncccc1COc1cccc(O)c1C=O [voxelotor, 2-hydroxy-6-((2-(1-isopropyl-1H-pyrazol-5-yl)pyridin-3-yl)methoxy)benzaldehyde]",presence in milk,[1],detected in milk
same,AUC(0-t),[2]; [4],246 µg·h/mL
same,Cmax,[2]; [4],12.6 µg/mL
same,AUC(0-t),[2]; [5],3820 µg·h/mL
same,Cmax,[2]; [5],179 µg/mL
same,half-life,"[2]; human, plasma, oral, 1500 mg, patients with SCD, read-out: terminal elimination half-life, geometric mean (converted)",35.5 h
same,Vd,"[2]; human, plasma, oral, read-out: apparent volume of distribution of the central compartment",338 L
same,Tmax,"[2]; human, plasma and whole blood, oral administration, read-out: median Tmax",2 h
same,time to steady-state after repeated administration,[2]; patients with SCD,≤ 8 days
same,apparent volume of distribution of the peripheral compartment,[2]; plasma,72.2 L
same,"Half-life, Geometric Mean (% CV)","[2]; plasma, Voxelotor 1,500 mg",35.5 (25) hours
same,apparent oral clearance,"[2]; plasma, patients with SCD",6.7 L/h
same,PK linearity,"[2]; single or multiple doses, whole blood, plasma and RBCs",linear
same,effect of voxelotor on PK of CYP1A2 probe substrate (caffeine),"CYP1A2; healthy subjects, multiple doses of voxelotor 900/600 mg QD",no clinically meaningful effect
same,inhibition of CYP1A2 in vivo,"CYP1A2; human, in vivo",not
same,"Hemoglobin, adjusted mean change from baseline to Week 24","[3]; 1,500 mg QD (N = 90)",1.14 g/dL
same,"Indirect Bilirubin, adjusted mean percent change from baseline to Week 24","[3]; 1,500 mg QD (N = 90)",−29.08%
same,"Percent Reticulocyte Count, adjusted mean percent change from baseline to Week 24","[3]; 1,500 mg QD (N = 90)",−19.93%
same,Hb response rate (Hb increase of >1 g/dL from baseline to Week 24),"[3]; 1,500 mg daily oral, 46/90, placebo 6.5%",51.1%

# — patent US20230015823A1, “METHODS OF ADMINISTERING VOXELOTOR” (Global Blood Therapeutics, Inc., priority 2019, published 2023)
